From patent US20220015372A1, “BIOLOGICALS AND THEIR USE IN PLANTS” (PIONEER HI-BRED INTERNATIONAL, INC., priority 2018, published 2022)

Tests used:
[1] = test system: beet armyworm (Spodoptera exigua; BAW); test: Medium-sized plant-based assay on corn, BAW; format: in vivo; set-up: key to insect live or dead: live=F; dead=K
Description: (§1) Broths A and B were tested against four insect species in medium insect test units; DBM, FAW, beet armyworm (Spodoptera exigua; BAW), and corn earworm (Helicoverpa zea; CEW). Test units were comprised of 70 cm^3 bases with 35 g of Woodstown Sandy Loam soil (Delmar, Del.) and mustard (Brassicae kaber; 6.5-7 cm), corn (Zea mays; 7-8 cm) or Bush bean (Phaseolus vulgaris; 6-7cm) as host plants for DBM, FAW and BAW, and CEW, respectively. Three concentrations of Broths A and B were tested: 0.25, 0.5 and 1×, with and without the surfactant X-77. Spinetoram was included as a positive control. Untreated controls were also included. Test units were sprayed with 1.2 mL of broth, in triplicate, and subsequently infested with approximately 15-20 stage 1 BAW or FAW larvae, or 30-40 neonate DBM or CEW. Units were kept in controlled conditions of 25° C./70% RH/16:8 h (L:D) photoperiod for six days and then scored. There are two scores given for each treatment, (1) plant damage rating from 0-10, with 0 being no damage and 10 being plant was completely consumed, and (2) insect live or dead (live=F; dead=K). The scores are averages of the three technical replicates. Any treatment with a plant damage score of 3 or less and an insect rating of K was considered to be active.

FAW = test: Medium-sized plant-based assay on corn, FAW; format: in vivo, Spodoptera frugiperda; set-up: key to insect live or dead: live=F; dead=K
Description: as §1

[2] = test system: corn earworm (Helicoverpa zea; CEW); test: Medium-sized plant-based assay on bush bean, CEW; format: in vivo; set-up: key to insect live or dead: live=F; dead=K
Description: as §1

[3] = test system: Fall Armyworm (FAW, Spodoptera frugiperda); test: Lepidoptera diet-based feeding assay, FAW; format: in vivo; conditions: serial dilutions of Kings Medium fermentate (depsipeptide 55 ug/ml) in artificial diet
Description: (§2) Lepidopteran feeding assays (including FAW) were conducted on an artificial diet containing fermented broth in a 96 well plate set up. The broth was incorporated with multi-species Lepidopteran artificial diet (Southland Products Inc., Arkansas) in a ratio of 25 μl test sample and 35 μl of diet. Two to five neonate larvae were placed in each well to feed for 4 days. Results were expressed as positive for larvae reactions such as stunting and/or mortality. Results were expressed as negative if the larvae were similar to the negative control that is fed diet to which the above control broth only has been applied.

[4] = test system: European corn borer (ECB, Ostrinia nubilalis); test: Lepidoptera diet-based feeding assay, ECB; format: in vivo; conditions: serial dilutions of Kings Medium fermentate (depsipeptide 55 ug/ml) in artificial diet
Description: as §2

[5] = test system: soybean looper (SBL, Pseudoplusia includens); test: Lepidoptera diet-based feeding assay, SBL; format: in vivo; conditions: serial dilutions of Kings Medium fermentate (depsipeptide 55 ug/ml) in artificial diet
Description: as §2

[6] = test system: corn earworm (Hehcoverpa zea); test: Lepidoptera diet-based feeding assay, CEW; format: in vivo, Helicoverpa zea; conditions: serial dilutions of Kings Medium fermentate (depsipeptide 55 ug/ml) in artificial diet
Description: as §2

[7] = test system: Western Corn Rootworm (WCRW, Diabrotica virgifera virgifera); test: Coleoptera diet based feeding assay, WCRW; format: in vivo; conditions: serial dilutions of Kings Medium fermentate (depsipeptide 55 ug/ml) in artificial diet
Description: Western Corn Rootworm (WCRW, Diabrotica virgifera virgifera) bioassays were conducted in a 96 well plate format, mixing 10 μl of test sample with 50 μl molten modified Southern Corn Rootworm diet (Frontier Agricultural Sciences, diet F9800B). WCRW neonates were placed into each well before heat sealed with a Mylar film. Holes are punched in the film to allow air exchange. The assay was run four days at 25° C. in the dark. The plates were then scored for insect mortality and stunting of insect growth. The scores were noted as dead, severely stunted (little or no growth but alive), stunted (growth but not equivalent to controls) or no activity.

[8] = 0.1 ppm, Table 3 assay without X-77, six days
[9] = 0.1 ppm, Table 4 assay with X-77, six days
[10] = 0.2 ppm, Table 3 assay without X-77, six days
[11] = 0.2 ppm, Table 4 assay with X-77, six days
[12] = 2 ppm, Table 3 assay without X-77, six days
[13] = 2 ppm, Table 4 assay with X-77, six days

Spinetoram
insect live or dead [1, 8]: F
plant damage rating from 0-10 [1, 8]: 7
insect live or dead [1, 9]: F
plant damage rating from 0-10 [1, 9]: 7
insect live or dead [1, 10]: F
plant damage rating from 0-10 [1, 10]: 4
insect live or dead [1, 11]: F
plant damage rating from 0-10 [1, 11]: 4
insect live or dead [1, 12]: K
plant damage rating from 0-10 [1, 12]: 0
insect live or dead [1, 13]: F
plant damage rating from 0-10 [1, 13]: 4
insect live or dead (FAW; [8]): F
plant damage rating from 0-10 (FAW; [8]): 5
insect live or dead (FAW; [9]): F
plant damage rating from 0-10 (FAW; [9]): 5
insect live or dead (FAW; [10]): K
plant damage rating from 0-10 (FAW; [10]): 1
insect live or dead (FAW; [11]): K
plant damage rating from 0-10 (FAW; [11]): 1
insect live or dead (FAW; [12]): K
plant damage rating from 0-10 (FAW; [12]): 0
insect live or dead (FAW; [13]): K
plant damage rating from 0-10 (FAW; [13]): 0
insect live or dead [2, 8]: K
plant damage rating from 0-10 [2, 8]: 1
insect live or dead [2, 9]: K
plant damage rating from 0-10 [2, 9]: 1
insect live or dead [2, 10]: K
plant damage rating from 0-10 [2, 10]: 1
insect live or dead [2, 11]: K
plant damage rating from 0-10 [2, 11]: 1
insect live or dead [2, 12]: K
plant damage rating from 0-10 [2, 12]: 0
insect live or dead [2, 13]: K
plant damage rating from 0-10 [2, 13]: 0

FR901375 [depsipeptide]
minimal dose to achieve 100% mortality [3]: 2 pmm
minimal dose to achieve 100% mortality [4]: 2 ppm
minimal dose to achieve 100% mortality [5]: 1 ppm
minimal dose to achieve 100% mortality [6]: 11 ppm
minimal dose to achieve 100% mortality [7]: 23 ppm
